# Assay results from patent publication US6344460B1, “Propynyl uracils” (Lonza Inc., priority 2000, dated 2002).
# Tests used:
# [1] = test system: Aspergillus niger ATCC #16404; experiment: Minimum inhibitory concentration by zone of inhibition assay; assay type: cell-based; conditions: 5 days contact, Day-Engley neutralizing media
# Text: A. niger ATCC #16404 was contacted with each sulfone for 5 days in a Day-Engley neutralizing media.
# [2] = test system: Chaetomium globosum (a soft rot, ATCC 6205); conditions: C. globosum; minimum concentration for 50% zone of inhibition, 9 days contact
# Procedure: (§1) Prod J. 45(1):86-9 (1995), was performed to determine the minimum concentration of uracil necessary to achieve a 50% zone of inhibition over 9 days of contact time.
# [3] = test system: Postia placenta (a brown rot, ATCC 11538); conditions: P. placenta; for IC50 (ppm): minimum concentration for 50% zone of inhibition, 9 days contact
# Procedure: as §1
# [4] = test system: Gloephyllium trabeum (a brown rot, ATCC 11539); conditions: G. trabeum; for IC50 (ppm): minimum concentration for 50% zone of inhibition, 9 days contact
# Procedure: as §1
# [5] = test system: Trametes versicolor (a white rot; ATCC 42462); conditions: T. versicolor; for IC50 (ppm): minimum concentration for 50% zone of inhibition, 9 days contact
# Procedure: as §1
compound,measurement,setting,value
O=c1c(F)cn(CC#CI)c(=O)n1-c1ccco1 [1N-(3-iodo-2-propynyl)-3N-(2-furanyl)-5-fluorouracil],5 Day Minimum Inhibitory Concentration Aspergillus niger,[1],30 to 100 mg/L
"Cc1cn(CC#CI)c(=O)n(CC#CI)c1=O [1N,3N-Bis(3-iodo-2-propynyl)-5-methyluracil]",5 Day Minimum Inhibitory Concentration Aspergillus niger,[1],10 to 30 mg/L
"O=c1ccn(CC#CI)c(=O)n1CC#CI [1N, 3N-bis(3-iodo-2-propynyl)-uracil, 1N,3N-Bis(3-iodo-2-propynyl)-uracil]",5 Day Minimum Inhibitory Concentration Aspergillus niger,[1],3 to 10 mg/L
O=c1c(Cl)cn(CC#CI)c(=O)n1CC#CI,IC50 (ppm),[2],3.22 ppm
same,concentration at which a total kill was observed,[3],no more than 50 ppm
same,IC50 (ppm),[3],<5.0 ppm
same,concentration at which a total kill was observed,[4],no more than 50 ppm
same,IC50 (ppm),[4],3.22 ppm
same,concentration at which a total kill was observed,[5],no more than 50 ppm
same,IC50 (ppm),[5],6.12 ppm
same,5 Day Minimum Inhibitory Concentration Aspergillus niger,[1],10 to 30 mg/L
"CCCCCCCCCC[N+](C)(C)CCCCCCCCCC.[Cl-] [didecydimethyl ammonium chloride, didecyldimethyl ammonium chloride, reference compound]",IC50 (ppm),[2],62.9 ppm
same,IC50 (ppm),[3],5.6 ppm
same,IC50 (ppm),[4],6.45 ppm
same,IC50 (ppm),[5],53.9 ppm
O=c1[nH]cc([N+](=O)[O-])c(=O)n1CC#CI [3N-(3-iodo-2-propynyl)-5-nitrouracil],5 Day Minimum Inhibitory Concentration Aspergillus niger,[1],30 to 100 mg/L
O=c1ccn(CC#CI)c(=O)n1C1O[C@H](CO)[C@@H](O)[C@H]1O (stereo partly drawn) [1N-(3-iodo-2-propynyl)-3N-(D-1-ribose)-uracil],5 Day Minimum Inhibitory Concentration Aspergillus niger,[1],100 to 300 mg/L
